The results in this text go back to ChEMBL document CHEMBL5537120 (Eur J Med Chem, 2024).

Active and inactive are the calls of the source. The rule behind the calls is not given here. Where a SMILES comes first, the peptide text is derived from it. Bridges are numbered along the chain shown (N, C = ends).

The test system of this test is SARS-CoV-2. The test is described as follows: Antiviral activity against HIV-1 pseudotyped SARS-CoV-2 Omicron BA.2.75 infected in HEK293T cells harboring ACE2+/NRP1- assessed as reduction in infection rate pretreated with cells for 1 hr followed by viral infection and measured after 2 days by firefly luciferase reporter gene assay. The format is functional, organism-based. To be noted: Severe acute respiratory syndrome coronavirus 2, time 49.0 hrs. (In general: A reporter such as luciferase makes a cellular process visible.)

Turning to `CC[C@H](C)[C@@H]1NC(=O)[C@@H]2CCCN2C(=O)[C@H](CO)NC(=O)[C@@H](NC(=O)[C@@H](NC(=O)[C@H](Cc2ccc(O)cc2)NC(=O)[C@H](CCCNC(=N)N)NC(=O)[C@H](CC(=O)O)NC(=O)CN)[C@@H](C)O)CSSC[C@@H](C(=O)N[C@@H](CC(=O)O)C(=O)N[C@@H](CC(C)C)C(=O)NCC(=O)N[C@@H](CC(=O)O)C(=O)N2CCC[C@H]2C(=O)N[C@@H](CCC(=O)O)C(=O)NCC(=O)NCC(=O)NCC(=O)N[C@@H](CCCCN)C(=O)N[C@@H](C)C(=O)N2CCC[C@H]2C(=O)N[C@@H](CCCNC(=N)N)C(=O)N[C@@H](CCCNC(=N)N)C(=O)N[C@@H](C)C(=O)N[C@@H](CCCNC(=N)N)C(=O)O)NC(=O)[C@H](CCCNC(=N)N)NC(=O)[C@H](Cc2c[nH]c3ccccc23)NC(=O)[C@H](Cc2c[nH]c3ccccc23)NC(=O)[C@@H]2CCCN2C(=O)[C@H](Cc2ccccc2)NC(=O)[C@H](CCSC)NC(=O)[C@H](CCCNC(=N)N)NC1=O` (H-GDRYTCSPIRMFPWWRCDLGDPEGGGKAPRRAR-OH; disulfide 6-17), the outcome was Active. As for `CC(C)C[C@@H]1NC(=O)[C@H](C)NC(=O)[C@H](CCCNC(=N)N)NC(=O)[C@@H](NC(=O)[C@@H]2CCCN2C(=O)[C@H](CO)NC(=O)[C@H](Cc2ccc(O)cc2)NC(=O)[C@H](CC(=O)O)NC(=O)CN)CSSC[C@@H](C(=O)N2CCC[C@H]2C(=O)N[C@@H](CO)C(=O)NCC(=O)N[C@@H](CC(=O)O)C(=O)N2CCC[C@H]2C(=O)N[C@@H](CCC(=O)O)C(=O)NCC(=O)NCC(=O)NCC(=O)N[C@@H](CCCNC(=N)N)C(=O)NCC(=O)N[C@@H](CCCNC(=N)N)C(=O)N[C@@H](CCCNC(=N)N)C(=O)N2CCC[C@H]2C(=O)N2CCC[C@H]2C(=O)N[C@@H](CCCNC(=N)N)C(=O)O)NC(=O)[C@H](CCCNC(=N)N)NC(=O)[C@H](Cc2c[nH]c3ccccc23)NC(=O)[C@H](Cc2c[nH]c3ccccc23)NC(=O)[C@@H]2CCCN2C(=O)[C@H](CO)NC(=O)[C@H](Cc2cnc[nH]2)NC(=O)[C@H](CCCNC(=N)N)NC1=O` (H-GDYSPCRALRHSPWWRCPSGDPEGGGRGRRPPR-OH; disulfide 6-17), the result was Active. Take `CC(C)C[C@@H]1NC(=O)[C@@H]2CCCN2C(=O)[C@H](CO)NC(=O)[C@@H](NC(=O)[C@H](Cc2cnc[nH]2)NC(=O)[C@H](CO)NC(=O)[C@H](Cc2ccccc2)NC(=O)[C@H](CC(=O)O)NC(=O)CN)CSSC[C@@H](C(=O)N[C@H](C(=O)N[C@@H](Cc2ccc(O)cc2)C(=O)N2CCC[C@H]2C(=O)N[C@@H](CC(=O)O)C(=O)N2CCC[C@H]2C(=O)N[C@@H](CCC(=O)O)C(=O)NCC(=O)NCC(=O)NCC(=O)N[C@@H](CCCCN)C(=O)N2CCC[C@H]2C(=O)N[C@@H](C)C(=O)N[C@@H](CCCNC(=N)N)C(=O)N2CCC[C@H]2C(=O)N[C@@H](C)C(=O)N[C@@H](CCCNC(=N)N)C(=O)O)[C@@H](C)O)NC(=O)[C@H](CCCCN)NC(=O)[C@H](Cc2ccccc2)NC(=O)[C@H](Cc2c[nH]c3ccccc23)NC(=O)[C@@H]2CCCN2C(=O)[C@H](Cc2ccccc2)NC(=O)[C@H](Cc2ccc(O)cc2)NC(=O)[C@H](CCCNC(=N)N)NC1=O` (H-GDFSHCSPLRYFPWFKCTYPDPEGGGKPARPAR-OH; disulfide 6-17): the result was Active. Consider `CC(C)C[C@H](NC(=O)[C@H](CC(=O)O)NC(=O)CN)C(=O)N[C@@H](Cc1cnc[nH]1)C(=O)N[C@@H](C)C(=O)N[C@H]1CSSC[C@@H](C(=O)N[C@H](C(=O)N[C@@H](CC(C)C)C(=O)NCC(=O)N[C@@H](CC(=O)O)C(=O)N2CCC[C@H]2C(=O)N[C@@H](CCC(=O)O)C(=O)NCC(=O)NCC(=O)NCC(=O)N[C@@H](CCCNC(=N)N)C(=O)N[C@@H](CO)C(=O)N2CCC[C@H]2C(=O)N[C@@H](CCCNC(=N)N)C(=O)N[C@@H](CCCNC(=N)N)C(=O)N[C@@H](C)C(=O)N[C@@H](CCCNC(=N)N)C(=O)O)[C@@H](C)O)NC(=O)[C@H](C)NC(=O)[C@H](Cc2c[nH]c3ccccc23)NC(=O)[C@H](Cc2c[nH]c3ccccc23)NC(=O)[C@@H]2CCCN2C(=O)[C@H](CC(=O)O)NC(=O)CNC(=O)[C@H](CCCNC(=N)N)NC(=O)[C@H](C(C)C)NC(=O)[C@@H]2CCCN2C(=O)[C@H](CCCNC(=N)N)NC1=O` (H-GDLHACRPVRGDPWWACTLGDPEGGGRSPRRAR-OH; disulfide 6-17), for which the result was Active. Regarding `CC[C@H](C)[C@H](NC(=O)[C@H](Cc1ccccc1)NC(=O)[C@H](CCCCN)NC(=O)[C@H](CC(=O)O)NC(=O)CN)C(=O)N[C@H]1CSSC[C@@H](C(=O)N[C@@H](CC(N)=O)C(=O)N[C@@H](Cc2c[nH]c3ccccc23)C(=O)N[C@@H](Cc2ccc(O)cc2)C(=O)N[C@@H](CC(=O)O)C(=O)N2CCC[C@H]2C(=O)N[C@@H](CCC(=O)O)C(=O)NCC(=O)NCC(=O)NCC(=O)N[C@@H](CCCCN)C(=O)NCC(=O)N[C@@H](CC(N)=O)C(=O)N[C@@H](CCCNC(=N)N)C(=O)N2CCC[C@H]2C(=O)N2CCC[C@H]2C(=O)N[C@@H](CCCNC(=N)N)C(=O)O)NC(=O)[C@H](Cc2ccccc2)NC(=O)[C@H](CCCCN)NC(=O)[C@H](Cc2c[nH]c3ccccc23)NC(=O)[C@@H]2CCCN2C(=O)[C@H](CCCCN)NC(=O)[C@H](CC(=O)O)NC(=O)[C@H](CCCNC(=N)N)NC(=O)[C@H]([C@@H](C)CC)NC(=O)[C@@H]2CCCN2C(=O)[C@H](CC(C)C)NC1=O` (H-GDKFICLPIRDKPWKFCNWYDPEGGGKGNRPPR-OH; disulfide 6-17), the result was Active.
